The results in this text go back to a melting point compilation (Tetko et al.; mined from patent text by program, amines drawn as free bases though some values may be those of a salt).

The compound `CC(=Cc1c[nH]c2ccc(CNS(C)(=O)=O)cc12)[N+](=O)[O-]` came in with a melting point of 201 to 202 °C.

`CC(C)N1Cc2cncn2C(c2ccc(C#N)cc2)C1=O` (centres undefined) yielded a melting point of 122 to 124 °C.

As to `CCOC(=O)c1cnn2c1c(N1CCOCC1)nc1ccccc12`, the melting point lay within 142 to 143 °C.

In turn, `CC1CC2=CC(=O)CCC2=C2CCC3(C)C(=O)CCC3C21` (centres undefined) registered a melting point of 204 to 205 °C.

`CCOC(=O)c1nc2cc(F)ccc2nc1CC`: the melting point lay within 42 to 45 °C.

As for `O=C(O)C1(Cc2ccccc2)CCN(Cc2ccccc2)C1` (centres undefined), the melting point was in the range of 209 to 210 °C.

In turn, `CCC1(C2CCCC2)Cc2cc(OC)c(Cl)c(Cl)c2C1=O` (centres undefined) showed a melting point of 163 °C.

As for `COC1(OC)CCN(c2nc3c(cc2F)C=C(C(=O)O)CN3c2ccc(F)cc2F)C1`, the melting point is 205 to 206 °C.

The compound `O=C(OCC1CCC(COC(=O)c2ccccc2)CC1)c1ccccc1` (centres undefined) showed a melting point of 111 to 113 °C.

Compound `CCCCCCCCCCCCCCOc1ccccc1C(=O)Cc1nnn[nH]1` registered a melting point of 67 to 69 °C.

`COc1cccc(CO)c1C(O)c1ccccn1` (centres undefined) had a melting point of 102 to 104 °C.

`CCOCc1ccc(CN(O)C(N)=O)o1` registered a melting point of 80.5 °C.

With `CN1CCC(P(=O)(O)O)(P(=O)(O)O)N=C1N`, the melting point is 308 °C.

On to `CCOC(=O)CCCCCCCCCCNC(=O)c1cc(O)ccc1O`, for which the melting point lay within 72 to 74 °C.

`COc1ccc(-c2ccccc2)cc1NC(=O)c1ncc[nH]1` came in with a melting point of 276 °C.

For the compound `Cc1ccnc(NC(=O)C2CC2)c1[N+](=O)[O-]`, the melting point was 179 °C.

Regarding `COc1ccc(F)c2c1C=C(C#N)CO2`, the melting point fell in the range of 133 to 135 °C.

`O=[N+]([O-])c1cc(Cl)c(Cl)cc1NCCCO` returned a melting point of 97 °C.

Consider `N#CCC(=O)Nc1ccccc1S`, for which the melting point lay within 198 to 201 °C.

`COC(c1sc2ccc(Cl)cc2c1Cl)C(C)NC(=O)c1cn(C)nc1C(F)F` (centres undefined) registered a melting point of 128 to 132 °C.

Take `O=C1CCCC(S(=O)(=O)c2ccccc2)C1` (centres undefined): the melting point was in the range of 83 to 85 °C.

`O=[N+]([O-])c1cc(-c2nnc(Nc3ccc(Cl)c(Cl)c3)s2)cc([N+](=O)[O-])c1` had a melting point of 305 to 306 °C.

On to `COC(C)c1ccc(-c2ccc(O)cc2)cc1` (single isomer, unassigned; (+)), for which the melting point was in the range of 174 to 175 °C.

With `CN(c1ccc(Cl)cc1)c1ncnc2cc(Cl)ccc12`, the melting point lay in the range of 129 to 131 °C.

With `CC(=O)Nc1cccc(CNc2nc(Nc3cccc(NS(C)(=O)=O)c3)nc3[nH]cnc23)c1`, the melting point is 159 to 162 °C.

In turn, `COC(=O)c1ccc(-c2ccc(-c3ccccc3)c(-c3ccc4c(c3)SCCC4(C)C)c2)cc1` displayed a melting point of 172 °C.

Consider `COC(=O)C(Cc1ccccc1)Oc1ccc2cc(CNC(=O)c3oc4ccccc4c3C)ccc2c1Br` (centres undefined), for which the melting point lay within 129 to 133 °C.

Consider `CNC(=O)CC1(CC(=O)O)c2ccccc2C(=O)c2ccccc21`, for which the melting point fell in the range of 238 to 239 °C.

In turn, `O=C(O)CCCCCCCC(=O)c1c(-c2ccc(O)cc2)sc2cc(O)ccc12` showed a melting point of 154 to 158 °C.

On to `CCOC(=O)CCCNC(=O)c1n[nH]cc1NC(=O)c1ccccn1`, for which the melting point lay within 179 to 180 °C.

`Cc1cc(=O)oc2c(C)c3c(cc12)CCCO3`: the melting point fell in the range of 162 to 163 °C.

Take `CCCCCCn1c(=O)c(=O)[nH]c2c3ccccc3ccc21`: the melting point was determined as 196 °C.

`Cc1c(NCCNCC(O)COc2ccccc2)c(=O)n(C)c(=O)n1C` (centres undefined) gave a melting point of 92 to 94 °C.

The compound `O=[N+]([O-])c1ccc(Cl)c(C2OCCO2)c1` gave a melting point of 78 to 81 °C.

As for `O=c1c2ccc(-c3nnn[nH]3)cc2oc2ccc(OCCO)cc12`, the melting point is 270 °C.

`CCCCN(C1c2cc(OCc3ccccc3)ccc2OC(C)(C)C1O)S(C)(=O)=O` (centres undefined): the melting point fell in the range of 159 to 160 °C.

As to `CN(c1ccc(Cl)cc1)S(=O)(=O)c1cccc(NC(=O)c2ccc(Br)cc2)c1`, the melting point was 187 to 189 °C.

For `O=C(Nc1ccc(F)cc1F)c1nc(Cl)c(Cl)[nH]1`, the melting point stood at 290 °C.

Compound `CNC(=O)n1nc(Oc2ccc(C(F)(F)F)cc2[N+](=O)[O-])cc1C(F)(F)F` returned a melting point of 102 to 104 °C.

`CCCCCCCCCCCCCCCCOc1ccc(OCC(=O)N(Cc2ccccn2)C(C)=O)cc1` registered a melting point of 58 to 59 °C.

For the compound `C[C@]12CCC(=O)N[C@@H]1CCc1cc(-c3cccc4ccccc34)ccc12`, the melting point lay in the range of 247 to 248 °C.

`Cc1ccc(C)c(NC(=S)N2CCC(c3nc(C4=NOC(c5ccccc5)C4)cs3)CC2)c1` (centres undefined) registered a melting point of 120 to 123 °C.

Take `Cc1cccc2c1oc1c(NC(=O)c3ccccn3)n(C)nc12`: the melting point lay within 167 to 168 °C.

As for `CCOC(=O)c1[nH]cc(C)c1-c1ccccc1`, the melting point lay within 62 to 64 °C.

For `COC(=O)CCCCc1cc2nc(Cl)ccc2n1S(=O)(=O)c1cc(C)cc(C)c1`, the melting point was 126 °C.

Consider `Nc1cc2[nH]c(=O)ccc2cn1`, for which the melting point was more than 275 °C.

Compound `CN1CCC(c2c(O)cc(O)c3c(=O)cc(-c4ccccc4Cl)oc23)C1CO` (centres undefined) yielded a melting point of 228 to 230 °C.

As to `C=CCc1ccccc1OCC(O)CNCCc1ccc(NC2CCN(S(=O)(=O)c3ccc(NC(=O)NCCCCCC)cc3)CC2)cc1` (centres undefined), the melting point lay in the range of 68 to 70 °C.

Consider `COCCN1C(=O)CCC(C)(C)c2ccc(Nc3ncc(Cl)c(Nc4c(F)cccc4OCC#N)n3)cc21`, for which the melting point was 235 to 238 °C.

`COCc1cnc2c(NC(=O)c3c(Cl)cccc3Cl)cccc2c1COC` had a melting point of 160 to 161 °C.

Compound `NC(=O)N(O)CC#CCOc1ccccc1` yielded a melting point of 97 to 99 °C.

The compound `O=C(O)CCC(=O)NCc1ccc2c(c1)-c1[nH]nc(-c3ccsc3)c1C2` had a melting point of 235 to 236 °C.

In turn, `N#CC(N)=C(C#N)N=Cc1cnn(-c2ncc(C(F)(F)F)cc2Cl)n1` gave a melting point of 220 to 222 °C.

`CCCc1c2oc(C(=O)O)cc(=O)c2cc2c(=O)ccn(Cc3ccccc3)c12`: the melting point is more than 250 °C.

For `Cc1ccccc1OCC1CO1` (centres undefined), the melting point was 114 to 116 °C.

`CCN(CC)C(=O)NCCc1cccc(-c2nc(=O)c3ccccc3s2)n1` showed a melting point of 175 to 176 °C.

In turn, `COC(=O)c1cn(CCO)nc1[N+](=O)[O-]` returned a melting point of 93 to 95 °C.

As for `CC(C)c1ccc(NC(=O)C2CCCc3c(OCc4ccccc4)cccc32)cc1` (centres undefined), the melting point stood at 170 °C.

The compound `Cc1ccc(CNC(=O)C2=C(C(=O)Nc3cc(OC4CCCC4)c(Cl)cc3F)CCCC2)cc1` registered a melting point of 168 to 169 °C.

For the compound `CC1OCCN1CCNc1ccc(NCCN2CCOC2C)c2c1C(=O)c1c(O)ccc(O)c1C2=O` (centres undefined), the melting point was 161 to 168 °C.

On to `CC(=O)OC(C)(C)C(=O)Nc1ccc(Sc2ccc(N)cc2)cc1Cl`, for which the melting point is 130 to 132 °C.

As to `Cc1cc(C(=O)N2Cc3cccn3Cc3ccccc32)ccc1C1=CCC2CCC1C2` (centres undefined), the melting point was 168 to 169 °C.

The compound `COCCN1C(=O)C(C)(C)C(=O)N(C)c2cc(CN(CCn3cc(C)c4occc4c3=O)Cc3cccnc3C)ccc21` yielded a melting point of 127 to 130 °C.

`COc1snc(OCC#CI)c1C#N` yielded a melting point of 159 to 160 °C.
